US3933853A, “Indole derivatives” (Clin Midy, priority 1972, dated 1976)
Where two headings read alike, the source gives them in different places.

Tests used:
Acute toxicity (LD50) = settings: in vivo, mouse
From the text: Moreover, the compounds of the present invention are not, in general, very toxic.
Toxicity, expressed in mg/kg bodyweight, is given below for certain other compounds when administered by the sub-cutaneous route and by the oral route.

[1] = tested on: visceral pain in the mouse; assay: Analgesic effect, Koster and Anderson test (visceral pain induced by intraperitoneal acetic acid); assay type: in vivo; settings: oral, 30 minutes before acetic acid injection, read-out: ED50 (50% effective dose reducing by one half the number of symptoms of pain)
Experimental: A visceral pain is induced in the mouse by intraperitonal injection of a dilute solution of acetic acid (Koster and Anderson test).
The animals, which are starved on the day before the experiment, and separated into random batches of five, are treated with the products under test 30 minutes before injection of the irritant. Treatment was always performed orally.
After the acetic solution is injected the animals show symptoms of pain (stretching of the abdomen with extension of the back feet) which are counted during two spells of five minutes for each lot: from the fifth to the tenth minute and from the fifteen to the twentieth minute respectively after the acid is injected.
The ED50 value is expressed in mg per kg bodyweight.
These doses were obtained by oral administration of the products of the invention.

central nervous system = assay: Tranquillising effect, exploration test (perforated board); assay type: in vivo; settings: mouse, oral route
Experimental: Exploration test (perforated board): the number of holes explored by an animal (mouse) which has unrestricted movement and is placed on the board for the first time, are recorded.

[2] = sc, sub-cutaneous route, read-out: LD50 / toxicity, sub-cutaneous
[3] = oral route, read-out: LD50 / toxicity, oral

SMILES | LD50 (Acute toxicity (LD50); [2]) [mg/kg] | LD50 (Acute toxicity (LD50); [3]) [mg/kg] | ED50 [1] [mg/kg] | ED50 (central nervous system) [mg/kg]
CCC(=O)ON=C(C)Cc1cn(CCN(C)C)c2ccccc12 [compound 5473] | 200 to 400 | > 400 | 0.75 to 1.5 | 
CCN(CC)CCn1cc(CC(C)=O)c2ccccc21 [compound 5477] | 200 | 400 |  | 
COc1ccc(-n2cc(CC(C)O)c3ccccc32)cc1 (centres unmarked) [compound 5992] | > 400 | > 400 |  | 1
CC(=O)Cc1cn(CCN(C)C)c2ccccc12 [compound 5353] |  |  | 1.5 | 5
CCN(CC)CCn1cc(CC(C)O)c2ccccc21 (centres unmarked) [compound 5938] |  |  | 1.5 | 
CC(O)Cc1cn(CCN(C)C)c2ccccc12 (centres unmarked) [compound 5607] | 800 | > 800 | 0.75 | 
CC(Cc1cn(CCN(C)C)c2ccccc12)=NO [compound 5354] |  |  | 3 | 
CC(=O)ON=C(C)Cc1cn(CCN(C)C)c2ccccc12 [compound 5472] | 400 | 200 | 0.75 to 1.5 | 5
CC(Cc1cn(CCN(C)C)c2ccccc12)=NOCCN(C)C [compound 5444] |  |  | 6.25 to 12.5 | 
